Measured values: patent US4673665A, “Process for treating anestrus in ewes or beef cattle” (Hoechst Aktiengesellschaft, priority 1982, dated 1987)

Key:
monkey = conditions: continuous intravenous injection of LH-RH; cited from earlier work
sheep [1] = conditions: 14-day s.c. progesterone implant, then 250 ng LH-RH at 2 hourly intervals for 48 hours, cited from earlier work
beef cows [2] = test: Example 3: PRID progesterone device for 8 days, then constant LH-RH infusion in post-partum beef cows; ovulation; format: in vivo, beef cattle; conditions: PRID for 8 days, then LH-RH constant infusion 2.5 μg/2 h; 5 beef cows
Protocol: 5 Beef cows were treated in the early post-partum period over a period of 8 days by inserting in them an intravaginal device (PRID® of the firm Abbott) containing progesterone. Following withdrawal of the device a LH-RH constant infusion in doses of 2.5 μg/2 h was carried out in the manner described in Example 2. Ovulation occurred during the treatment in all cows, said ovulation being characterized by an increase in the progesterone plasma level.

female mature ewes = test: Example 1: progesterone implant pretreatment, then constant LH-RH infusion in ewes; mating, ovulation (laparoscopy), pregnancy; format: in vivo, sheep (Clun Forest, Welsh Halfbred); conditions: for number of ovulations: laparoscopy
Protocol: Implants containing progesterone were administered subcutaneously to 28 female mature ewes of two different breeds ("Clun Forest" and "Welsh Halfbred") for a period of 14 days. 12 Ewes were infused constantly with 125 to 250 ng of LH-RH per hour over a period of 48 hours 2 hours before withdrawing the implants. Four ewes treated with a saline solution served as a control. The sheep were examined by laparoscopy to test them for ovulation, moreover blood samples were taken to determine the progesterone level. 24 hours after starting the infusions, onset of estrus was observed using fertile rams at 4 hourly intervals and the ewes in estrus were mated.

beef cows [3] = test: Example 2: LH-RH injections at 2 hourly intervals or constant infusion in early post-partum beef cows; progesterone and LH level; format: in vivo, beef cattle; conditions: for No. showing progesterone rise: 2 to 4 days
Protocol: 17 Beef cows were injected with 1.0, 2.5 and 5.0 μg of LH-RH, respectively, in the early post-partum period during 2 to 4 days at 2 hourly intervals, while 21 beef cows were given a constant infusion of identical dosage per unit of time during the same period of time.
Blood samples were taken prior to and during the treatments to determine the LH level. Blood samples for determining the progesterone level were taken during a prolonged period of time after the treatment.

sheep [4] = conditions: i.v. injections of 250, 500 and 1,000 ng LH-RH at 2 hourly intervals over 8 days, no gestagen pretreatment; cited from earlier work
[5] = 125 ng of LH-RH/h constant infusion for 48 h after 14-day progesterone implant
[6] = 250 ng LH-RH/h constant infusion for 48 h after 14-day progesterone implant

LH-RH: LH/FSH-releasing hormone, provokes release of LH and FSH from the pituitary gland
pulsed LH release followed by induction of menstrual cycle and ovulation (monkey): failed
number of bred sheep that became pregnant (sheep [1]; 5 bred sheep): 3
estrus and ovulation (sheep [1]; 5 sheep): induced
cows in which ovulation occurred during the treatment (increase in progesterone plasma level) (beef cows [2]): all cows
rate of ovulations (female mature ewes; [5]): 1.4
number of ovulations (female mature ewes; [5]): 9
number of mated sheep (female mature ewes; 125 ng of LH-RH/h constant infusion for 48 h after 14-day s.c. progesterone implant): 10
rate of ovulations (female mature ewes; [6]): 1.5
number of ovulations (female mature ewes; [6]): 12
number of mated sheep (female mature ewes; 250 ng LH-RH/h constant infusion for 48 h after 14-day s.c. progesterone implant): 11
pregnancy rate (female mature ewes; ewes treated with LH-RH after progesterone implant and mated): 75%
plasma LH concentrations during treatment phase compared to pretreatment phase (beef cows [3]; all test animals, irrespective of mode of administration and dose (1.0, 2.5, 5.0 μg)): distinct increase
No. showing progesterone rise (beef cows [3]; constant infusion 1.0 μg/2 h, total 6 + 3 cows): 2
number of animals that responded (progesterone rise) (beef cows [3]; constant infusion 1.0 μg/2 h, the 3 cows with calvings in summer): 2
response (progesterone rise) (beef cows [3]; constant infusion 1.0 μg/2 h, the 6 cows treated after spring calvings): did not respond
No. showing progesterone rise (beef cows [3]; constant infusion 2.5 μg/2 h, total 6 cows): 4
No. showing progesterone rise (beef cows [3]; constant infusion 5.0 μg/2 h, total 6 cows): 4
No. showing progesterone rise (beef cows [3]; injections at 2 hourly intervals, 1.0 μg, total 6 cows): 4
No. showing progesterone rise (beef cows [3]; injections at 2 hourly intervals, 2.5 μg, total 6 cows): 4
No. showing progesterone rise (beef cows [3]; injections at 2 hourly intervals, 5.0 μg, total 5 cows): 4
induction of estrus (sheep [4]): could not be induced
